In PubChem BioAssay AID179 (DTP/NCI, 2004):
The source made the active and inactive calls.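 The calls were made as follows: active = compounds giving half or more protection of infected cells from virus-caused growth loss, again on retest; inactive = the rest.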 Where a SMILES comes first, the peptide text is derived from it.

System: CEM cells HIV-1 protection, formazan growth assay
Test: NCI AIDS Antiviral Assay
Conditions: for IC50: measured here: growth of uninfected CEM cells
In short: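 Soluble formazan readout of cell growth; CEM cells ± HIV-1; 5 drug concs. ≥50% protection → retest; ≥50% again = moderately active; reproducible 100% = confirmed active.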

Compound	EC50	IC50	outcome
CC(C)[Si](OC1=C(C(=O)N(C)c2ccccc2Cl)CCCC1)(C(C)C)C(C)C	> 200 µM	16.6 µM	–
C[Si](C)(C)CCCS(=O)(=O)O	> 200 µM	> 200 µM	–
C[n+]1cccc(O)c1	–	–	inactive
Cc1c(C)c(C)c2c(c1C)C/C2=N/O	> 100 µM	> 100 µM	–
O=c1oc2ccccc2cc1Cl	> 145 µM	> 145 µM	–
CCOC(=O)c1nc(SC)sc1NC(=O)c1ccccc1N	> 200 µM	> 200 µM	–
[N-]=[N+]=CC(=O)C1CCN(c2ccccc2)C1=O (centres undefined)	> 200 µM	> 200 µM	–
NS(=O)(=O)c1ccc(NC(=S)/N=C\c2c(O)[nH]c(=O)[nH]c2=O)cc1	> 200 µM	> 200 µM	–
CNC(=O)CCCN(C)C(=O)CCCCC(=O)N(C)C	> 200 µM	> 200 µM	–
Cn1cc(NC(=O)Nc2cc(C(=O)Nc3cc(C(=O)Nc4cc(C(=O)Nc5ccc(P(=O)(O)O)c6cc(P(=O)(O)O)ccc56)n(C)c4)n(C)c3)n(C)c2)cc1C(=O)Nc1cc(C(=O)Nc2cc(C(=O)Nc3ccc(P(=O)(O)O)c4cc(P(=O)(O)O)ccc34)n(C)c2)n(C)c1	1.29 µM	37.2 µM	–
COc1ccc(N=C(C)C(C)=Nc2ccc(OC)cc2)cc1	–	–	inactive
CCOC(=O)CN1CCC2CC1c1c([nH]c3ccccc13)C2c1cc2c(cc1OC)N(C)C1C(O)(C(=O)OC)C(OC(C)=O)C3(CC)C=CCN4CCC21C43 (centres undefined)	> 9.55 µM	> 9.55 µM	–
NC(CC(=O)O)C(=O)O (centres undefined)	> 38.9 µM	> 38.9 µM	–
COc1ccc2c(c1)C(=O)c1ccc(OC)cc1C2=S	–	–	inactive
CCn1c(SCC(=O)NNC(=S)Nc2ccc(F)cc2)nc2ccccc2c1=O	> 200 µM	129 µM	–
C#CC1(O)CCC2C3CCc4cc(Oc5nc(F)nc(-c6c7ccccc7c7sc8ccccc8n67)n5)ccc4C3CC[C@@]21C (some centres undefined)	> 200 µM	115 µM	–
N#C/C(=C\c1ccc(F)cc1)c1nc2ccccc2c(=O)[nH]1	–	–	inactive
CCN(CC)C(=O)C1=C(C)NC(C)=C(C(=O)N(CC)CC)C1	> 200 µM	61.7 µM	–
CC(=O)c1cccc(NC(=O)Nc2ncccc2C)c1	182 µM	> 200 µM	–
CN(C)CC/C(=N\Nc1ccccc1)c1ccccc1	–	–	inactive
Cc1c(C(=O)O)n2c(=S)[nH]nc2c2ccccc12	> 200 µM	> 200 µM	–

Compound	EC50	IC50	outcome
CC1=C2C(=CC(C)(CO)C2O)C(=O)C(C)(O)C12CC2 (centres undefined)	–	–	inactive
COC(=O)C(Cc1nc2ccc(Cl)cc2[nH]c1=O)/C(=N/O)C(=O)Nc1cccc(Cl)c1C (centres undefined)	> 105 µM	> 105 µM	–
COc1ccc2c(c1)CC1Cc3ccccc3CCN1C2 (centres undefined)	> 200 µM	39.8 µM	–
CCOc1ccccc1NC(=O)C(=O)c1c(O)c2ccc(O)cc2oc1=O	> 490 µM	182 µM	–
O=C(Nc1ccccc1-c1ccccc1)c1ccccc1	> 200 µM	91.2 µM	–
O=CC(=O)c1ccccc1	–	–	inactive
O=C(NO)c1ccc(OCc2ccccc2)cc1	> 200 µM	16.2 µM	–
Cn1nc(-c2ccc(Cl)cc2)[n+]([O-])c2c(=O)n(C)c(=O)nc1-2	> 200 µM	3.31 µM	–
COc1cccc(OC)c1/C=C1\OC(=O)c2cccc(OC)c21	> 20 µM	1.17 µM	–
C[C@@H](Br)[C@@H]1CC[C@H]2c3[nH]c4ccccc4c3CCN2C1	> 200 µM	17.4 µM	–
COC1=C(Br)[C@H](O)[C@@]2(C=C1Br)CC(C(=O)NCCCCCN=C(N)N)=NO2	> 10 µM	> 10 µM	–
CS(=O)CC(=O)c1ccccn1 (centres undefined)	> 200 µM	> 200 µM	–
Cc1cc2nnc(-c3ccc(C#N)cc3)n2c2nnnn12	> 200 µM	–	–
CNc1cc2oc(=O)cc(C)c2cc1C	> 67.6 µM	> 67.6 µM	–
C(=Nc1cnc2ccccc2c1)c1ccnc2ccccc12	> 66.1 µM	3.55 µM	–
O=S(=O)(c1ccccc1)C1CN2OC1(S(=O)(=O)c1ccccc1)CC21CCCCC1 (centres undefined)	–	–	inactive
CN(C)c1ccc(/C=c2\sc3nnc(Cc4ccccc4)n3c2=O)cc1	> 3.98 µM	> 3.98 µM	–
Cc1nc(C(N)=S)sc1C(=O)CC(=O)C(=O)Nc1ccc(Br)cc1	> 85.1 µM	> 85.1 µM	–
C=CCOC(=O)Cn1cc(C)c(=O)[nH]c1=O	> 200 µM	> 200 µM	–
C/C=C/CP(=O)(c1ccccc1)c1ccccc1	0.0631 µM	> 200 µM	–
CCOC(=O)C1=NN(c2ccccc2)C2=CC(C)=NN(C)C(=S)N21	> 200 µM	> 200 µM	–

Compound	EC50	IC50	outcome
COC(=O)C1CN=CN1CCc1ccccc1 (centres undefined)	> 200 µM	> 200 µM	–
CC(C)CC(N)C(=O)NC(Cc1ccc(O)cc1)C(=O)NC(CCC(=O)O)C(=O)N1CCCC1C(=O)NC(CO)C(=O)NC(Cc1ccc(O)cc1)C(=O)NC(C)C(=O)N1CCCC1C(=O)NC(CC(N)=O)C(=O)NC(Cc1cnc[nH]1)C(=O)NC(Cc1ccccc1)C(=O)O (centres undefined) (H-LYEPSYAPNHF-OH; configuration not given here)	–	–	inactive
CN(/N=C\c1ccc2ccccc2c1)C1=NCCN1	> 200 µM	22.9 µM	–
Nc1nc(N)c2cc(Cl)ccc2n1	> 1290 µM	26.9 µM	–
COC(=O)/C(C#N)=C/NC(=S)Nc1ccccc1	> 200 µM	> 200 µM	–
CN1C(=O)c2ccccc2C(C(=O)O)C1c1ccc2c(c1)OCO2 (centres undefined)	> 151 µM	> 151 µM	–
CCCCCCCCCCCCCCCC(=O)Nc1ccn(C2CCC(COP(=O)(O)OC3CC(n4cc(F)c(=O)[nH]c4=O)OC3CO)O2)c(=O)n1 (centres undefined)	> 0.126 µM	0.038 µM	–
Cc1nnc2cc(C(=O)O)c3ccccc3n2c1=O	> 200 µM	> 200 µM	–
O=C1CC(C2(c3ccc4c(c3)OCO4)SCCCS2)CO1 (centres undefined)	> 155 µM	> 155 µM	–
N#Cc1c(-c2ccc([N+](=O)[O-])cc2)c(C#N)c(=O)n(NS(=O)(=O)c2ccccc2)c1-c1ccccc1	> 200 µM	36.3 µM	–
CCCCc1ccc(Nc2nc(Cl)c3ccn(C4CC(Oc5ccc(C)cc5)C(COc5ccc(C)cc5)O4)c3n2)cc1 (centres undefined)	> 200 µM	> 200 µM	–
CC1=NN(C(=O)CC(=O)Nc2ccc(Cl)cc2)C(=O)C1N=Nc1ccc(C(=O)O)cc1 (centres undefined)	> 200 µM	87.1 µM	–
CCN(CC)C1=Nc2ccccc2N(c2ccccc2)C(=S)C1	> 200 µM	85.1 µM	–
CC(=O)C1(N=Nc2ccc(S(=O)(=O)Nc3ccccn3)cc2)CCOC1=O (centres undefined)	> 200 µM	> 200 µM	–
C=CCCCCCCCCC(=O)NCC1CC1	> 200 µM	> 200 µM	–
O=C1/C(=C/c2ccc(Cl)c(Cl)c2)CN(C(=O)CCN2CCOCC2)C/C1=C\c1ccc(Cl)c(Cl)c1	> 22.9 µM	0.12 µM	–
CCc1ccccc1NC(=O)C1=C(C)NC(C)=C(C(=O)Nc2ccccc2CC)C1c1ccccc1Cl	> 10 µM	> 10 µM	–
Cn1cnc([N+](=O)[O-])c1Sc1nnc(C(F)(F)F)n1C	> 813 µM	4.27 µM	–
CCC(C)C(NC(=O)C(CCC(N)=O)NC(=O)C1CCCN1)C(=O)NC(C(=O)NC(CC(C)C)C(=O)O)C(C)O (centres undefined) (H-PQITL-OH; configuration not given here)	–	–	inactive
CC1SC2=NC3=C(c4ccccc4C3=O)C(c3ccc(Br)cc3)N2C1=O (centres undefined)	> 32.4 µM	> 32.4 µM	–
CN(C)CC1CCCC/C1=N/OC(=O)c1ccc(Cl)cc1 (centres undefined)	–	–	inactive
